# According to PubChem BioAssay (NCI):
#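 Five compound concentrations were applied to cells in 96-well plates for 48 hours; endpoints were derived by simple linear interpolation of the resulting dose-response curve. GI50: concentration for 50% inhibition of growth. TGI is the concentration that stops growth completely.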
# How the values were obtained:
# Test in all cases: inhibition of tumour cell growth, NCI panel, 48 h
# SW-620 colon = tested on: SW-620 colon
# DU-145 prostate = tested on: DU-145 prostate
# HCC-2998 colon = tested on: HCC-2998 colon
# TK-10 renal = tested on: TK-10 renal
# SNB-75 CNS = tested on: SNB-75 CNS
# 786-0 renal = tested on: 786-0 renal
# MALME-3M melanoma = tested on: MALME-3M melanoma
# NCI/ADR-RES ovarian = tested on: NCI/ADR-RES ovarian
# K-562 leukemia = tested on: K-562 leukemia
# M14 melanoma = tested on: M14 melanoma
# HCT-116 colon = tested on: HCT-116 colon
# SN12C renal = tested on: SN12C renal
# MOLT-4 leukemia = tested on: MOLT-4 leukemia
# NCI-H460 lung = tested on: NCI-H460 lung
# OVCAR-3 ovarian = tested on: OVCAR-3 ovarian
# LOX IMVI melanoma = tested on: LOX IMVI melanoma
# PC-3 prostate = tested on: PC-3 prostate
# IGROV1 ovarian = tested on: IGROV1 ovarian
# UACC-62 melanoma = tested on: UACC-62 melanoma
# MCF7 breast = tested on: MCF7 breast
# HT29 colon = tested on: HT29 colon
# SF-539 CNS = tested on: SF-539 CNS
# OVCAR-8 ovarian = tested on: OVCAR-8 ovarian
# BT-549 breast = tested on: BT-549 breast
# A498 renal = tested on: A498 renal
# KM12 colon = tested on: KM12 colon
# NCI-H522 lung = tested on: NCI-H522 lung
# OVCAR-5 ovarian = tested on: OVCAR-5 ovarian
# SNB-19 CNS = tested on: SNB-19 CNS
# SK-MEL-5 melanoma = tested on: SK-MEL-5 melanoma
# T-47D breast = tested on: T-47D breast
# CCRF-CEM leukemia = tested on: CCRF-CEM leukemia
# SK-MEL-28 melanoma = tested on: SK-MEL-28 melanoma
# HOP-92 NSCLC = tested on: HOP-92 NSCLC
# SF-295 CNS = tested on: SF-295 CNS
# HCT-15 colon = tested on: HCT-15 colon
# UO-31 renal = tested on: UO-31 renal
# SK-MEL-2 melanoma = tested on: SK-MEL-2 melanoma
# SR leukemia = tested on: SR leukemia
# U251 CNS = tested on: U251 CNS
# COLO 205 colon = tested on: COLO 205 colon
# NCI-H226 lung = tested on: NCI-H226 lung
# ACHN renal = tested on: ACHN renal
# CAKI-1 renal = tested on: CAKI-1 renal
# SF-268 CNS = tested on: SF-268 CNS
# HL-60(TB) leukemia = tested on: HL-60(TB) leukemia
# RPMI-8226 leukemia = tested on: RPMI-8226 leukemia
# MDA-MB-435 = tested on: MDA-MB-435
# MDA-MB-231 breast = tested on: MDA-MB-231 breast
# OVCAR-4 ovarian = tested on: OVCAR-4 ovarian
# EKVX NSCLC = tested on: EKVX NSCLC
# HS 578T breast = tested on: HS 578T breast
# UACC-257 melanoma = tested on: UACC-257 melanoma
# A549 NSCLC = tested on: A549 NSCLC
# HOP-62 NSCLC = tested on: HOP-62 NSCLC
# SK-OV-3 ovarian = tested on: SK-OV-3 ovarian
# RXF 393 renal = tested on: RXF 393 renal
# NCI-H23 lung = tested on: NCI-H23 lung
structure (smiles),measurement,setting,value
Cc1ccc2c(c1)c1nc3cc(C)c(C)cc3nc1n2CCN(C)C,GI50,SW-620 colon,1.13 µM
same,TGI,SW-620 colon,5.46 µM
same,GI50,DU-145 prostate,2.9 µM
same,TGI,DU-145 prostate,10.6 µM
same,GI50,HCC-2998 colon,1.79 µM
same,TGI,HCC-2998 colon,3.98 µM
same,GI50,TK-10 renal,2.11 µM
same,TGI,TK-10 renal,7.94 µM
same,GI50,SNB-75 CNS,1.5 µM
same,TGI,SNB-75 CNS,6.41 µM
same,GI50,786-0 renal,2.56 µM
same,TGI,786-0 renal,10.8 µM
same,GI50,MALME-3M melanoma,1.73 µM
same,TGI,MALME-3M melanoma,3.76 µM
same,GI50,NCI/ADR-RES ovarian,1.15 µM
same,TGI,NCI/ADR-RES ovarian,5.42 µM
same,GI50,K-562 leukemia,2.6 µM
same,TGI,K-562 leukemia,50.3 µM
same,GI50,M14 melanoma,1.78 µM
same,TGI,M14 melanoma,3.92 µM
same,GI50,HCT-116 colon,0.63 µM
same,TGI,HCT-116 colon,10.1 µM
same,GI50,SN12C renal,1.44 µM
same,TGI,SN12C renal,8.77 µM
same,GI50,MOLT-4 leukemia,1.73 µM
same,TGI,MOLT-4 leukemia,16.3 µM
same,GI50,NCI-H460 lung,2.69 µM
same,TGI,NCI-H460 lung,9.25 µM
same,GI50,OVCAR-3 ovarian,2.37 µM
same,TGI,OVCAR-3 ovarian,6.59 µM
same,GI50,LOX IMVI melanoma,1.45 µM
same,TGI,LOX IMVI melanoma,4.45 µM
same,GI50,PC-3 prostate,2.32 µM
same,TGI,PC-3 prostate,6.82 µM
same,GI50,IGROV1 ovarian,1.93 µM
same,TGI,IGROV1 ovarian,4.77 µM
same,GI50,UACC-62 melanoma,1.59 µM
same,TGI,UACC-62 melanoma,3.57 µM
same,GI50,MCF7 breast,2.91 µM
same,TGI,MCF7 breast,9.7 µM
same,GI50,HT29 colon,1.23 µM
same,TGI,HT29 colon,6.54 µM
same,GI50,SF-539 CNS,2.15 µM
same,TGI,SF-539 CNS,6.13 µM
same,GI50,OVCAR-8 ovarian,1.73 µM
same,TGI,OVCAR-8 ovarian,8.29 µM
same,GI50,BT-549 breast,2.46 µM
same,TGI,BT-549 breast,9.05 µM
same,GI50,A498 renal,1.77 µM
same,TGI,A498 renal,3.34 µM
same,GI50,KM12 colon,2.67 µM
same,TGI,KM12 colon,10.5 µM
same,GI50,NCI-H522 lung,1.54 µM
same,TGI,NCI-H522 lung,5.58 µM
same,GI50,OVCAR-5 ovarian,2.4 µM
same,TGI,OVCAR-5 ovarian,7.65 µM
same,GI50,SNB-19 CNS,2.5 µM
same,TGI,SNB-19 CNS,9.88 µM
same,GI50,SK-MEL-5 melanoma,1.77 µM
same,TGI,SK-MEL-5 melanoma,3.18 µM
same,GI50,T-47D breast,3.34 µM
same,TGI,T-47D breast,17.7 µM
same,GI50,CCRF-CEM leukemia,2.05 µM
same,TGI,CCRF-CEM leukemia,10.6 µM
same,GI50,SK-MEL-28 melanoma,2.55 µM
same,TGI,SK-MEL-28 melanoma,5.46 µM
same,GI50,HOP-92 NSCLC,1.09 µM
same,TGI,HOP-92 NSCLC,4.42 µM
same,GI50,SF-295 CNS,2.37 µM
same,TGI,SF-295 CNS,6.62 µM
same,GI50,HCT-15 colon,1.91 µM
same,TGI,HCT-15 colon,7.75 µM
same,GI50,UO-31 renal,1.07 µM
same,TGI,UO-31 renal,3.48 µM
same,GI50,SK-MEL-2 melanoma,2.15 µM
same,TGI,SK-MEL-2 melanoma,4.87 µM
same,GI50,SR leukemia,1.06 µM
same,TGI,SR leukemia,14.2 µM
same,GI50,U251 CNS,2.3 µM
same,TGI,U251 CNS,8.85 µM
same,GI50,COLO 205 colon,1.24 µM
same,TGI,COLO 205 colon,4.6 µM
same,GI50,NCI-H226 lung,1.86 µM
same,TGI,NCI-H226 lung,4.69 µM
same,GI50,ACHN renal,0.821 µM
same,TGI,ACHN renal,5.92 µM
same,GI50,CAKI-1 renal,1.33 µM
same,TGI,CAKI-1 renal,4.46 µM
same,GI50,SF-268 CNS,2.51 µM
same,TGI,SF-268 CNS,7.65 µM
same,GI50,HL-60(TB) leukemia,2.95 µM
same,TGI,HL-60(TB) leukemia,9.65 µM
same,GI50,RPMI-8226 leukemia,2.06 µM
same,TGI,RPMI-8226 leukemia,5.2 µM
same,GI50,MDA-MB-435,1.98 µM
same,TGI,MDA-MB-435,4.42 µM
same,GI50,MDA-MB-231 breast,2.11 µM
same,TGI,MDA-MB-231 breast,8.5 µM
same,GI50,OVCAR-4 ovarian,3.43 µM
same,TGI,OVCAR-4 ovarian,19.6 µM
same,GI50,EKVX NSCLC,2.95 µM
same,TGI,EKVX NSCLC,11.4 µM
same,GI50,HS 578T breast,2.74 µM
same,TGI,HS 578T breast,8.04 µM
same,GI50,UACC-257 melanoma,2.2 µM
same,TGI,UACC-257 melanoma,5.48 µM
same,GI50,A549 NSCLC,1.79 µM
same,TGI,A549 NSCLC,4.72 µM
same,GI50,HOP-62 NSCLC,1.78 µM
same,TGI,HOP-62 NSCLC,7.26 µM
same,GI50,SK-OV-3 ovarian,2.61 µM
same,TGI,SK-OV-3 ovarian,8.52 µM
same,GI50,RXF 393 renal,1.32 µM
same,TGI,RXF 393 renal,3.4 µM
same,GI50,NCI-H23 lung,2.04 µM
same,TGI,NCI-H23 lung,5.9 µM
